In ChEMBL document CHEMBL4219205, “Utilizing a structure-based docking approach to develop potent G protein-coupled receptor kinase (GRK) 2 and 5 inhibitors” (Bioorg Med Chem Lett, 2018) one finds IC50 data, which are given here for 39 compounds.

One assay concerns the target T1, Rhodopsin kinase GRK1 (Homo sapiens, UniProt Q15835).
T1 sequence (Q15835 whole entry): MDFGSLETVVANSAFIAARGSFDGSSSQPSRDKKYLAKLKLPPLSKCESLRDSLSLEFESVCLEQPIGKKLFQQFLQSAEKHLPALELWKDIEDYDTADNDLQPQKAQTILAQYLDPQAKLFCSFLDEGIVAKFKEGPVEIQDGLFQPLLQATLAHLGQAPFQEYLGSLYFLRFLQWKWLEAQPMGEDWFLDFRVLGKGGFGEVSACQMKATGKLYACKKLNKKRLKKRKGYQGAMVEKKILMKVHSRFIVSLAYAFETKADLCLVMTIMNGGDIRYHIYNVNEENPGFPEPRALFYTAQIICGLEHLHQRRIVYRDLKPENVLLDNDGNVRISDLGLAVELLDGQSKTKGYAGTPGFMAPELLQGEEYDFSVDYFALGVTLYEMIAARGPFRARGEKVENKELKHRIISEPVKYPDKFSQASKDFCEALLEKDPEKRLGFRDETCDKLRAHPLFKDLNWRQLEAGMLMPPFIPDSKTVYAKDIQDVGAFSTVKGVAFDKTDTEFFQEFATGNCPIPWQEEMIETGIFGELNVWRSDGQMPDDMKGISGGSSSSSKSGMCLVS
Briefly: Inhibition of GRK1 (unknown origin) preincubated for 10 mins followed by peptide substrate and ATP addition measured after 1 hr by TR-FRET assay. For orientation: In TR-FRET formats the signal depends on donor and acceptor labels being close together.

In assay [1] the target is T2, Beta-adrenergic receptor kinase 1 (Homo sapiens, UniProt P25098).
T2 sequence (P25098 whole entry): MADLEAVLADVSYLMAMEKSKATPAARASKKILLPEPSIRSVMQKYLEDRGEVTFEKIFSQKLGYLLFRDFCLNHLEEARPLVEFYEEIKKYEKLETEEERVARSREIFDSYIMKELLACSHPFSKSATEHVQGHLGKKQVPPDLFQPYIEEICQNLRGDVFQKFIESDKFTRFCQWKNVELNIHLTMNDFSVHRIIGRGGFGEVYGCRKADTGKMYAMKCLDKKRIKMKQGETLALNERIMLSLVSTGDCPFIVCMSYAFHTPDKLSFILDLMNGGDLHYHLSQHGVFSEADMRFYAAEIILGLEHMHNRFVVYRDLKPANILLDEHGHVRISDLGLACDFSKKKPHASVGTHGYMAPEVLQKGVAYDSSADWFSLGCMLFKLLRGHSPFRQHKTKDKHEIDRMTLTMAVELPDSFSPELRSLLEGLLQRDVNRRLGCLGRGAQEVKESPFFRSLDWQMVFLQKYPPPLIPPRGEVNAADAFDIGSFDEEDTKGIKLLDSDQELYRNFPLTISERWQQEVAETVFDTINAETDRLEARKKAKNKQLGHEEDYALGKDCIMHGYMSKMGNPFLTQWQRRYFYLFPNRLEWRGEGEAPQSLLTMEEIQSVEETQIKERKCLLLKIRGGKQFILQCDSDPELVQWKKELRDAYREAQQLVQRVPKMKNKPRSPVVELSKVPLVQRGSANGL
Briefly: Inhibition of GRK2 (unknown origin) preincubated for 10 mins followed by peptide substrate and ATP addition measured after 1 hr by TR-FRET assay.

Assay [2] addresses G protein-coupled receptor kinase 5 (Homo sapiens, UniProt P34947). Briefly: Inhibition of GRK5 (unknown origin) preincubated for 10 mins followed by peptide substrate and ATP addition measured after 1 hr by TR-FRET assay.

G protein-coupled receptor kinase 5, sequence (P34947 whole entry): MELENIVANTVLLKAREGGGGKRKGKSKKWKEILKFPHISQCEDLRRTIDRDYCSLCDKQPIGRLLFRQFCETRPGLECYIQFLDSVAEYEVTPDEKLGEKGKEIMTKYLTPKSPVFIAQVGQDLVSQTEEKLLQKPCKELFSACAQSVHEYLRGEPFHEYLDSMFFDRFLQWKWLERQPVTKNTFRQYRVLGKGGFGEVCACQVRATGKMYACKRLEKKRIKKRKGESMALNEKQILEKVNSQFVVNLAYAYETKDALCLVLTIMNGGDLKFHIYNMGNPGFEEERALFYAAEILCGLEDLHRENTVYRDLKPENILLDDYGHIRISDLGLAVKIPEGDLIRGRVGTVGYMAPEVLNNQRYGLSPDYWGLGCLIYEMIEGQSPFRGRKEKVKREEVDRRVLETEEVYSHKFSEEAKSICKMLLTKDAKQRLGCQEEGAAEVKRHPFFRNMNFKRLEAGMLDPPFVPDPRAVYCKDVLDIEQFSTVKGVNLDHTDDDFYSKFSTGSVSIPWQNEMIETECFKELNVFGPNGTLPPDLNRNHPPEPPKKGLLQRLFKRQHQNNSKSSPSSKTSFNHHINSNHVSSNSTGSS

Consider `COC(=O)C1(NC(=O)c2cc(C3NC(=O)NC(C)=C3C(=O)Nc3ccc4[nH]ncc4c3)ccc2F)CCCCC1` (centres undefined), for which the values for the IC50 (against Rhodopsin kinase GRK1; in assay [1]) were 83 µM and 0.16 µM, respectively.
For `CCCOC1CCN(C(=O)Cc2cc(C3NC(=O)NC(C)=C3C(=O)Nc3ccc4[nH]ncc4c3)ccc2F)C1` (centres undefined) the same measures were over 100 µM and 1.6 µM.
`CCCCCCC(C)NC(=O)c1cc(C2NC(=O)NC(C)=C2C(=O)Nc2ccc3[nH]ncc3c2)ccc1F` (centres undefined): the values for the IC50 (on Rhodopsin kinase GRK1; in assay [1]) were over 100 µM and 4.1 µM, respectively.
Take `CC#CCN(CCCC)C(=O)Cc1cc(C2NC(=O)NC(C)=C2C(=O)Nc2ccc3[nH]ncc3c2)ccc1F` (centres undefined): the IC50 (commonly the concentration that inhibits the measured activity by half) in assay [2] is 2.4 µM; at Rhodopsin kinase GRK1, over 100 µM; in assay [1] it was 0.43 µM.
As to `CC1=C(C(=O)Nc2ccc3[nH]ncc3c2)C(c2ccc(F)c(CC(=O)N(CCCO)CCCO)c2)NC(=O)N1` (centres undefined), the IC50 against Rhodopsin kinase GRK1 is over 100 µM; in assay [1], 0.75 µM.
Regarding `CC1=C(C(=O)Nc2ccc3[nH]ncc3c2)C(c2ccc(F)c(CC(=O)NCc3ccc(C#N)nc3)c2)NC(=O)N1` (centres undefined), the IC50 on Rhodopsin kinase GRK1 was over 100 µM; in assay [1], 1.4 µM.
Regarding `CC1=C(C(=O)Nc2ccc3[nH]ncc3c2)C(c2ccc(F)c(C(=O)NCc3cnc4c(c3)CCC4)c2)NC(=O)N1` (centres undefined), the results for the IC50 (in assay [2]; against Rhodopsin kinase GRK1; in assay [1]) were 9.5 µM, over 100 µM and 0.34 µM, respectively.
With `CCC(C)N(C)C(=O)c1cc(C2NC(=O)NC(C)=C2C(=O)Nc2ccc3[nH]ncc3c2)ccc1F` (centres undefined), the IC50 in assay [2] was over 100 µM; against Rhodopsin kinase GRK1 it was over 100 µM; in assay [1], 44 µM.
`CC1=C(C(=O)Nc2ccc3[nH]ncc3c2)C(c2ccc(F)c(CC(=O)N(CCO)CCC(C)C)c2)NC(=O)N1` (centres undefined): the half-inhibitory concentration (IC50) on Rhodopsin kinase GRK1 is over 100 µM; in assay [1], 1.5 µM.
For `COc1ccccc1C(C)NC(=O)c1cc(C2NC(=O)NC(C)=C2C(=O)Nc2ccc3[nH]ncc3c2)ccc1F` (centres undefined), the IC50 at Rhodopsin kinase GRK1 is 16 µM; in assay [1], 0.4 µM.
As for `CC1=C(C(=O)Nc2ccc3[nH]ncc3c2)C(c2ccc(F)c(CCC(=O)NCC3(C)CCCCC3)c2)NC(=O)N1` (centres undefined), the IC50 in assay [2] was over 100 µM; against Rhodopsin kinase GRK1, over 100 µM; in assay [1], 1.8 µM.
Regarding `CC1=C(C(=O)Nc2ccc3[nH]ncc3c2)C(c2ccc(F)c(CC(=O)NC3CC(=O)N(C)C3)c2)NC(=O)N1` (centres undefined), the IC50 on Rhodopsin kinase GRK1 is over 100 µM; in assay [1], 1.9 µM.
In the case of `CC1=C(C(=O)Nc2ccc3[nH]ncc3c2)C(c2ccc(F)c(CC(=O)N(CCO)Cc3ccco3)c2)NC(=O)N1` (centres undefined), the values for the IC50 (in assay [2]; at Rhodopsin kinase GRK1; in assay [1]) were 1.7 µM, 26 µM and 0.46 µM, respectively.
On to `CC1=C(C(=O)Nc2ccc3[nH]ncc3c2)C(c2ccc(F)c(C(=O)NC3CC4CCC3(C)C4(C)C)c2)NC(=O)N1` (centres undefined), for which the results for the IC50 (in assay [2]; against Rhodopsin kinase GRK1; in assay [1]) were over 100 µM, over 100 µM and 4.6 µM, respectively.
For `COCCCC1CCCCN1C(=O)c1cc(C2NC(=O)NC(C)=C2C(=O)Nc2ccc3[nH]ncc3c2)ccc1F` (centres undefined), the 50% inhibitory concentration (IC50) in assay [2] was over 100 µM; against Rhodopsin kinase GRK1 it was over 100 µM; in assay [1] it was 29 µM.
On to `CC1=C(C(=O)Nc2ccc3[nH]ncc3c2)C(c2ccc(F)c(CC(=O)N3CCC4CCC(C3)N4C)c2)NC(=O)N1` (centres undefined), for which the half-inhibitory concentration (IC50) in assay [2] is 6.1 µM; against Rhodopsin kinase GRK1, over 100 µM; in assay [1], 2.1 µM.
Regarding `COCc1noc(CNC(=O)c2cc(C3NC(=O)NC(C)=C3C(=O)Nc3ccc4[nH]ncc4c3)ccc2F)n1` (centres undefined), the IC50 at Rhodopsin kinase GRK1 was 30 µM; in assay [1], 0.25 µM.
Turning to `CC1=C(C(=O)Nc2ccc3[nH]ncc3c2)C(c2ccc(F)c(CC(=O)N3Cc4ccc(C)cc4C3)c2)NC(=O)N1` (centres undefined), the IC50 was 6.3 µM in assay [2], over 100 µM against Rhodopsin kinase GRK1 and 0.2 µM in assay [1].
In the case of `CC1=C(C(=O)Nc2ccc3[nH]ncc3c2)C(c2ccc(F)c(CCC(=O)NCc3ncc(C)o3)c2)NC(=O)N1` (centres undefined), at Rhodopsin kinase GRK1, the IC50 was over 100 µM.
Turning to `C#CCN(Cc1ccco1)C(=O)Cc1cc(C2NC(=O)NC(C)=C2C(=O)Nc2ccc3[nH]ncc3c2)ccc1F` (centres undefined), the IC50 in assay [2] was 3.5 µM; on Rhodopsin kinase GRK1 it was over 100 µM; in assay [1] it was 0.92 µM.
The compound `CC1=C(C(=O)Nc2ccc3[nH]ncc3c2)C(c2ccc(F)c(CC(=O)NCC3CCN(C4CC4)CC3)c2)NC(=O)N1` (centres undefined) came in with an IC50 at Rhodopsin kinase GRK1 of over 100 µM.
As to `CC1=C(C(=O)Nc2ccc3[nH]ncc3c2)C(c2ccc(F)c(CCC(=O)NCCc3ccccc3)c2)NC(=O)N1` (centres undefined), the IC50 in assay [2] is over 100 µM; on Rhodopsin kinase GRK1 it was over 100 µM; in assay [1], 4.7 µM.
`CCc1nc(CNC(=O)c2cc(C3NC(=O)NC(C)=C3C(=O)Nc3ccc4[nH]ncc4c3)ccc2F)no1` (centres undefined) returned an IC50 at Rhodopsin kinase GRK1 of 3 µM.
Turning to `CC1=C(C(=O)Nc2ccc3[nH]ncc3c2)C(c2ccc(F)c(CCC(=O)N(CC(C)C)C(C)C)c2)NC(=O)N1` (centres undefined), the values for the IC50 (in assay [2]; at Rhodopsin kinase GRK1; in assay [1]) were over 100 µM, over 100 µM and 12 µM, respectively.
As for `CC1=C(C(=O)Nc2ccc3[nH]ncc3c2)C(c2ccc(F)c(CC(=O)NCc3cc(C)ccc3C)c2)NC(=O)N1` (centres undefined), the IC50 was over 100 µM in assay [2], over 100 µM at Rhodopsin kinase GRK1 and 1.9 µM in assay [1].
Regarding `CCC(C)N(CO)C(=O)Cc1cc(C2NC(=O)NC(C)=C2C(=O)Nc2ccc3[nH]ncc3c2)ccc1F` (centres undefined), the IC50 at Rhodopsin kinase GRK1 was over 100 µM; in assay [1], 1.9 µM.
Take `CC1=C(C(=O)Nc2ccc3[nH]ncc3c2)C(c2ccc(F)c(C(=O)NCCc3c(C)noc3C)c2)NC(=O)N1` (centres undefined): the IC50 is over 100 µM against Rhodopsin kinase GRK1 and 0.64 µM in assay [1].
As to `CC1=C(C(=O)Nc2ccc3[nH]ncc3c2)C(c2ccc(F)c(C(=O)NCC(C)N3CCCCCC3)c2)NC(=O)N1` (centres undefined), the IC50 was over 100 µM against Rhodopsin kinase GRK1 and 1.2 µM in assay [1].
For `CC1=C(C(=O)Nc2ccc3[nH]ncc3c2)C(c2ccc(F)c(CCC(=O)NCC3(CO)CC3)c2)NC(=O)N1` (centres undefined), the IC50 was over 100 µM in assay [2], over 100 µM against Rhodopsin kinase GRK1 and 3.8 µM in assay [1].
Take `CC1=C(C(=O)Nc2ccc3[nH]ncc3c2)C(c2ccc(F)c(CC(=O)N(C)Cc3nc(C)c[nH]3)c2)NC(=O)N1` (centres undefined): the IC50 was over 100 µM at Rhodopsin kinase GRK1 and 2 µM in assay [1].
In the case of `C#CCN(CC(C)C)C(=O)Cc1cc(C2NC(=O)NC(C)=C2C(=O)Nc2ccc3[nH]ncc3c2)ccc1F` (centres undefined), the values for the IC50 (in assay [2]; against Rhodopsin kinase GRK1; in assay [1]) were 13 µM, over 100 µM and 2.4 µM, respectively.
On to `CC1=C(C(=O)Nc2ccc3[nH]ncc3c2)C(c2ccc(F)c(C(=O)N(C)Cc3cc(C)[nH]n3)c2)NC(=O)N1` (centres undefined), for which the results for the IC50 (on Rhodopsin kinase GRK1; in assay [1]) were over 100 µM and 1.1 µM, respectively.
With `CC1=C(C(=O)Nc2ccc3[nH]ncc3c2)C(c2ccc(F)c(CC(=O)N3CCOC(CCO)C3)c2)NC(=O)N1` (centres undefined), the IC50 against Rhodopsin kinase GRK1 was over 100 µM.
In the case of `CC1=C(C(=O)Nc2ccc3[nH]ncc3c2)C(c2ccc(F)c(C(=O)NC3CN4CCC3CC4)c2)NC(=O)N1` (centres undefined), the IC50 at Rhodopsin kinase GRK1 was over 100 µM; in assay [1], 0.5 µM.
Consider `CC1=C(C(=O)Nc2ccc3[nH]ncc3c2)C(c2ccc(F)c(C(=O)N(C)CC3CCCCO3)c2)NC(=O)N1` (centres undefined), for which the IC50 in assay [2] is over 100 µM; on Rhodopsin kinase GRK1 it was over 100 µM; in assay [1] it was 14 µM.
Turning to `CC1=C(C(=O)Nc2ccc3[nH]ncc3c2)C(c2ccc(F)c(C(=O)NC(C)CCCC(C)C)c2)NC(=O)N1` (centres undefined), the figures for the IC50 (in assay [2]; against Rhodopsin kinase GRK1; in assay [1]) were over 100 µM, over 100 µM and 4.1 µM, respectively.
For `CC1=C(C(=O)Nc2ccc3[nH]ncc3c2)C(c2ccc(F)c(CC(=O)N3CCCC(C(C)(C)C)CC3)c2)NC(=O)N1` (centres undefined), the IC50 in assay [2] is over 100 µM; against Rhodopsin kinase GRK1, over 100 µM; in assay [1] it was 3.5 µM.
On to `CCC1(O)CCCN(C(=O)CCc2cc(C3NC(=O)NC(C)=C3C(=O)Nc3ccc4[nH]ncc4c3)ccc2F)C1` (centres undefined), for which the figures for the half-inhibitory concentration (IC50) (in assay [2]; on Rhodopsin kinase GRK1; in assay [1]) were over 100 µM, over 100 µM and 29 µM, respectively.
As to `CCC(C)CN(CCO)C(=O)Cc1cc(C2NC(=O)NC(C)=C2C(=O)Nc2ccc3[nH]ncc3c2)ccc1F` (centres undefined), the IC50 in assay [2] is 9.3 µM; at Rhodopsin kinase GRK1 it was over 100 µM; in assay [1], 0.83 µM.
